The supplement of paper PMC10627819

Assays:
[1] = tested on: S. aureus Newman; experiment: Bliss interaction score (quartile over a dose matrix) (fitness difference); higher = more antagonism (negative = synergy)
Method in brief: (§1)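 Fitness was defined as normalised growth: OD595 at the start of stationary phase divided by the plate's robust no-drug mean and capped at 1. Single-drug fitness was inferred from combination measurements. The Bliss score is observed fitness minus the product of the single-drug values, summarised by quartiles across technical, biological and donor/recipient replicates.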

[2] = tested on: B. subtilis 168; experiment: as above
Method in brief: as §1

[3] = tested on: S. aureus DSM 20231; experiment: as above
Method in brief: as §1

[4] = tested on: S. pneumoniae D39V; experiment: as above
Method in brief: as §1

[5] = tested on: B. subtilis 168; experiment: fitness (endpoint OD595 vs no drug) (fraction); higher = more growth
Method in brief: (§2)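 Growth medium was TSB, LB Lennox or CY, and plates were kept at 37 °C. Inoculation was at OD595 0.01 in 384-well plates, at 30 µl per well or 55 µl for S. pneumoniae. OD595 was monitored every 30 min for 14 h and background-subtracted using the first reading. Fitness is the optical density on entering stationary phase divided by the robust mean of no-drug controls, with values capped at 1.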

[6] = tested on: S. aureus DSM 20231; experiment: as above
Method in brief: as §2

[7] = tested on: S. aureus Newman; experiment: as above; conditions: main component drawn
Method in brief: as §2
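Wherever Bliss interaction score (quartile over a dose matrix) is given: first quartile when negative (synergy) and third quartile when positive (antagonism).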
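Wherever fitness (endpoint OD595 vs no drug) is given: OD595 on entry to stationary phase over no-drug wells; at most 1.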

Cn1c2cccc(=O)c-2nc2ccccc21 [Pyocyanin] + COc1cc(Cc2cnc(N)nc2N)cc(OC)c1OC [Trimethoprim]
Conditions	Bliss interaction score
[1]	0.123
[2]	0.0421
[3]	0.163
[4]	0.117

fitness, one replicate
Conditions	partner 0.1 µg/mL	partner 0.125 µg/mL	partner 0.2 µg/mL	partner 0.4 µg/mL	partner 1 µg/mL	partner 2 µg/mL
[5], first compound 1.25 µg/mL	0.744	0.7	0.672	0.502	0.354	0.3
[5], first compound 2.5 µg/mL	0.758	0.598	0.669	0.414	0.297	0.273
[5], first compound 5 µg/mL	0.501	0.563	0.429	0.242	0.191	0.211
[6], first compound 1.25 µg/mL	–	0.659	–	–	–	–
[6], first compound 2.5 µg/mL	–	0.738	–	–	–	–
[6], first compound 5 µg/mL	–	0.577	–	–	–	–

fitness
Conditions	first compound 1.25 µg/mL	first compound 2.5 µg/mL	first compound 5 µg/mL
[5], partner 0.25 µg/mL	0.653	0.594	–
[5], partner 0.5 µg/mL	0.521	0.439	0.35
[6], partner 0.25 µg/mL	0.553	0.555	0.5
[6], partner 0.5 µg/mL	0.316	0.497	0.442
[6], partner 1 µg/mL	0.0451	0.053	0.0904

CN(N=O)C(=O)N[C@@H](C=O)[C@@H](O)[C@H](O)[C@H](O)CO [Streptozotocin] + CCCCCCCCCC(=O)N[C@@H]1[C@H]([C@@H]([C@H](O[C@H]1OC2=C3C=C4C=C2OC5=C(C=C(C=C5)[C@H]([C@H]6C(=O)N[C@@H](C7=C(C(=CC(=C7)O)OC8[C@H]([C@H]([C@@H]([C@H](O8)CO)O)O)O)C9=C(C=CC(=C9)[C@H](C(=O)N6)NC(=O)[C@@H]4NC(=O)[C@@H]1C2=CC(=CC(=C2)OC2=C(C=CC(=C2)[C@H](C(=O)N[C@H](CC2=CC(=C(O3)C=C2)Cl)C(=O)N1)N)O)O)O)C(=O)O)O[C@H]1[C@@H]([C@H]([C@@H]([C@H](O1)CO)O)O)NC(=O)C)Cl)CO)O)O [Teicoplanin]
main component drawn
Conditions	Bliss interaction score
[1]	-0.166
[2]	0.154
[3]	0.097
[4]	-0.0829

fitness, [7]
Conditions	first compound 0.15 µg/mL	first compound 0.3 µg/mL	first compound 0.6 µg/mL
partner 0.1562 µg/mL	0.874	0.724	0.493
partner 0.3125 µg/mL	0.762	0.656	0.368
partner 0.625 µg/mL	0.632	0.534	0.177

fitness
Conditions	first compound 0.15 µg/mL	first compound 0.3 µg/mL	first compound 0.6 µg/mL
[6], partner 0.1562 µg/mL, main component drawn	0.801	0.799	0.66
[6], partner 0.3125 µg/mL, main component drawn	0.935	0.91	0.713
[6], partner 0.625 µg/mL, main component drawn	≥ 1	0.937	0.787
[7], partner 0.62 µg/mL, one replicate	0.661	0.47	0.181
[7], partner 1.24 µg/mL, one replicate	0.578	0.259	0.0236
[7], partner 2.48 µg/mL, one replicate	0.363	0.0725	0.055

CN(N=O)C(=O)N[C@@H](C=O)[C@@H](O)[C@H](O)[C@H](O)CO [Streptozotocin] + COc1cc(Cc2cnc(N)nc2N)cc(OC)c1OC [Trimethoprim]
Conditions	Bliss interaction score
[1]	-0.12
[2]	0.062
[3]	-0.0675
[4]	-0.125

fitness, one replicate
Conditions	first compound 0.15 µg/mL	first compound 0.3 µg/mL	first compound 0.6 µg/mL
[5], partner 0.1 µg/mL	0.903	0.871	0.9
[5], partner 0.125 µg/mL	0.748	0.728	0.731
[5], partner 0.2 µg/mL	0.758	0.703	0.805
[5], partner 0.4 µg/mL	0.523	0.536	0.521
[6], partner 0.125 µg/mL	0.645	0.666	0.602

fitness
Conditions	first compound 0.15 µg/mL	first compound 0.3 µg/mL	first compound 0.6 µg/mL
[5], partner 0.5 µg/mL	0.51	0.496	0.501
[6], partner 0.25 µg/mL	0.549	0.557	0.493
[6], partner 0.5 µg/mL	0.0352	0.0171	0.0159
[6], partner 1 µg/mL	0.0265	0.0265	0.0187

Cc1cc(NS(=O)(=O)c2ccc(N)cc2)no1 [Sulfamethoxazol] + CCCCCCCCCC(=O)N[C@@H]1[C@H]([C@@H]([C@H](O[C@H]1OC2=C3C=C4C=C2OC5=C(C=C(C=C5)[C@H]([C@H]6C(=O)N[C@@H](C7=C(C(=CC(=C7)O)OC8[C@H]([C@H]([C@@H]([C@H](O8)CO)O)O)O)C9=C(C=CC(=C9)[C@H](C(=O)N6)NC(=O)[C@@H]4NC(=O)[C@@H]1C2=CC(=CC(=C2)OC2=C(C=CC(=C2)[C@H](C(=O)N[C@H](CC2=CC(=C(O3)C=C2)Cl)C(=O)N1)N)O)O)O)C(=O)O)O[C@H]1[C@@H]([C@H]([C@@H]([C@H](O1)CO)O)O)NC(=O)C)Cl)CO)O)O [Teicoplanin]
main component drawn
Conditions	Bliss interaction score
[1]	0.0326
[2]	0.0811
[3]	0.0373
[4]	-0.0733

fitness, [7]
Conditions	first compound 1 µg/mL	first compound 2 µg/mL	first compound 4 µg/mL
partner 0.1562 µg/mL	≥ 1	≥ 1	≥ 1
partner 0.3125 µg/mL	≥ 1	0.995	0.984
partner 0.625 µg/mL	≥ 1	≥ 1	0.862

fitness
Conditions	partner 0.1562 µg/mL	partner 0.3125 µg/mL	partner 0.62 µg/mL	partner 0.625 µg/mL	partner 1.24 µg/mL	partner 2.48 µg/mL
[6], first compound 1 µg/mL, main component drawn	0.941	≥ 1	–	≥ 1	–	–
[6], first compound 2 µg/mL, main component drawn	≥ 1	≥ 1	–	≥ 1	–	–
[6], first compound 4 µg/mL, main component drawn	0.965	0.991	–	≥ 1	–	–
[7], first compound 1 µg/mL, one replicate	–	–	0.805	–	0.726	0.397
[7], first compound 2 µg/mL, one replicate	–	–	0.861	–	0.712	0.387
[7], first compound 4 µg/mL, one replicate	–	–	0.788	–	0.724	0.425
[7], first compound 8 µg/mL, one replicate	0.963	0.866	–	0.997	–	–

Cc1cc(NS(=O)(=O)c2ccc(N)cc2)no1 [Sulfamethoxazol] + COc1cc(Cc2cnc(N)nc2N)cc(OC)c1OC [Trimethoprim]
Conditions	Bliss interaction score
[1]	0.0676
[2]	-0.173
[3]	-0.481
[4]	-0.364

fitness, one replicate
Conditions	first compound 0.5 µg/mL	first compound 1 µg/mL	first compound 2 µg/mL	first compound 4 µg/mL
[5], partner 0.1 µg/mL	–	0.607	0.473	0.373
[5], partner 0.125 µg/mL	0.481	–	–	0.285
[5], partner 0.2 µg/mL	–	0.489	0.374	0.353
[5], partner 0.25 µg/mL	0.389	–	–	–
[5], partner 0.4 µg/mL	–	0.343	0.318	0.352
[5], partner 0.5 µg/mL	0.299	–	–	–
[5], partner 1 µg/mL	–	0.37	0.245	0.226
[5], partner 2 µg/mL	–	0.323	0.163	0.109
[6], partner 0.125 µg/mL	–	0.534	0.22	0.041

fitness
Conditions	first compound 1 µg/mL	first compound 2 µg/mL	first compound 4 µg/mL
[5], partner 0.125 µg/mL	0.375	0.305	–
[5], partner 0.25 µg/mL	0.351	0.376	–
[5], partner 0.5 µg/mL	0.35	0.337	0.288
[6], partner 0.25 µg/mL	0.0669	0.0417	0.023
[6], partner 0.5 µg/mL	0.015	0.0145	0.0126
[6], partner 1 µg/mL	0.0332	0.0147	0.013
